Results reported in patent publication US20220401415A1, “METHODS FOR TREATING NEUROLOGICAL DISORDERS WITH ALPHA1A-AR PARTIAL AGONISTS” (Curasen Therapeutics, Inc., priority 2019, published 2022).
Where two headings read alike, the source gives them in different places.

Legend:
[1] = tested on: neurogenic orthostatic hypotension (nOH) patients; assay: Treatment of patients having nOH (Example 1); assay type: in vivo, human; conditions: 5 mg oral tablets twice daily, follow-up after one week of treatment
Method: Patients between the age of 40 and 80 years old that have been diagnosed with symptomatic orthostatic hypotension due to pure autonomic failure, multiple system atrophy or Parkinson's disease (i.e., PD plus symptoms) present for treatment. At the time of presentation, autonomic function testing is conducted to confirm the diagnosis of autonomic dysfunction including sinus arrhythmia and the Valsalva maneuver.
The patients are given 5 mg dabuzalgron oral tablets and are instructed to take one tablet shortly after waking up in the morning and a second tablet 4-6 hours later each day.
Some patients return for a follow-up visit after one week of treatment. […] In the follow-up visit supine systolic blood pressure (SSBP) may be determined.

α1A-AR receptor [2] = biological target: T1, α1A-AR receptor (Homo sapiens, UniProt P35348); conditions: as compared to noradrenaline; InsPs accumulation assay; Blue et al., Table 1; cited from earlier work
T1 sequence (P35348 1-466): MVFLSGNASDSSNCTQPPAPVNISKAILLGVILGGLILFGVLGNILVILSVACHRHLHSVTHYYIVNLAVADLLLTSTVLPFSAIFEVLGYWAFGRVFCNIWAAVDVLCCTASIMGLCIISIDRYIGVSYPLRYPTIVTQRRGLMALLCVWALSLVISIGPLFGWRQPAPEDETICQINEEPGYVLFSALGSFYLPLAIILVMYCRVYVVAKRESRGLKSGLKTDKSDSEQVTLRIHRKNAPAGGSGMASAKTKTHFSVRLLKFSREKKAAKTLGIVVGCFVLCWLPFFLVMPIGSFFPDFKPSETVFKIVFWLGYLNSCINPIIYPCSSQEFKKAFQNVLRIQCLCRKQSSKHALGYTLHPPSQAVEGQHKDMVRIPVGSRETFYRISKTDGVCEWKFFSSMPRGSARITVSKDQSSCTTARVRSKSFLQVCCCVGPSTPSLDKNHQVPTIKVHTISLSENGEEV

α1A-AR receptor [3] = biological target: T1, α1A-AR receptor; conditions: as compared to noradrenaline; FLIPR assay; Blue et al., Table 1; cited from earlier work

Cc1c(OCC2=NCCN2)ccc(Cl)c1NS(C)(=O)=O [RO 115-1240 (dabuzalgron) free base, N-[6-chloro-3-(4,5-dihydro-1H-imidazol-2-ylmethoxy)-2-methylphenyl]methanesulfonamide]
symptoms of nOH as compared to the first visit [1]: symptoms of nOH improve
intrinsic activity (α1A-AR receptor [2]): 0.31

Cc1c(OCC2=NCCN2)ccc(Cl)c1NS(C)(=O)=O.Cl [RO 115-1240 (dabuzalgron) HCl salt, N-[6-chloro-3-(4,5-dihydro-1H-imidazol-2-ylmethoxy)-2-methylphenyl]methanesulfonamide hydrochloride]
intrinsic activity (α1A-AR receptor [2]): 0.27
intrinsic activity (α1A-AR receptor [3]): 0.51
